Broadly, the GI50 is the concentration at which growth is held to half of that of the control.

Results on two compounds are retold here after ChEMBL document CHEMBL1201862, “PubChem BioAssay data set” (2004).

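Results reflect a 48-hour exposure of cells in 96-well plates to compound at five concentrations. GI50: concentration for 50% inhibition of growth.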 Activity calls are given as the source filed them. No stated cut-off is given here; in the data, active = GI50 up to about 1.1 µM and inactive = higher. Some results are limits rather than exact numbers.

Test systems include ACHN; COLO 205; HCC 2998; HCT-15; HL-60; HT-29; KM12; MDA-N; NCI-H23; OVCAR-3; OVCAR-5; OVCAR-8; SF-268; SF-539; SK-MEL-28; SK-OV-3; SNB-19; SW-620; U-251; UO-31.
What all share (assay): DTP human tumour cell line panel, 48 h

On to `CCOC(=O)N1CCN(C(=O)Nc2cccc3ccccc23)CC1`, for which the GI50 is > 10 µM (inactive) in the assay on ACHN; > 10 µM (inactive) with COLO 205; > 10 µM (inactive) with HCC 2998; above 10 µM with HCT-15; > 10 µM (inactive) in the assay on HL-60; > 10 µM (inactive) with HT-29. Further, the GI50 in the assay with KM12, in the assay with MDA-N, in the assay on NCI-H23, in the assay with OVCAR-3, in the assay on OVCAR-5 and with OVCAR-8 was > 10 µM (inactive) in each case. Further, the GI50 with SF-268, with SF-539, in the assay with SK-MEL-28, in the assay on SK-OV-3, in the assay with SNB-19 and in the assay with SW-620 was > 10 µM (inactive) in each case. Besides, the GI50 in the assay with U-251 and with UO-31 was > 10 µM (inactive) in each case.
Turning to `OCC(CO)CC1COc2ccccc2O1` (stereo not given), the GI50 in the assay with ACHN is > 10 µM (inactive); in the assay on COLO 205 it was > 10 µM (inactive); with HCC 2998, > 10 µM (inactive); in the assay on HCT-15, above 10 µM; in the assay on HL-60, > 10 µM (inactive); in the assay with HT-29, > 10 µM (inactive). Further, the GI50 with KM12, in the assay on MDA-N, in the assay on NCI-H23, in the assay on OVCAR-3, in the assay with OVCAR-5 and in the assay with OVCAR-8 was > 10 µM (inactive) in each case. In addition, the GI50 in the assay on SF-268, in the assay on SF-539, with SK-MEL-28, with SK-OV-3, with SNB-19 and with SW-620 was > 10 µM (inactive) each time. Also, the GI50 in the assay with U-251 and in the assay with UO-31 was > 10 µM (inactive) in each case.
